# Laboratory results reported in ChEMBL document CHEMBL3228008, “Synthesis and some pharmacological properties of 8-L-methionine-oxytocin” (1979).
# Where a SMILES comes first, the peptide text is derived from it. Bridges are numbered along the chain shown (N, C = ends).
# Key:
# Gallus gallus = test: Avian vasodepressor activity in conscious chicken; format: functional
# Rattus norvegicus [1] = test: Antidiuretic activity in anesthetized rat; format: functional, Urine
# [2] = Oxytocic activity in virgin rat uterine horns; format: functional
# Rattus norvegicus [3] = test: Pressor activity in anesthetized rat; format: functional
structure (smiles),measurement,setting,value
CC[C@H](C)[C@@H]1NC(=O)[C@H](Cc2ccc(O)cc2)NC(=O)[C@@H](N)CSSC[C@@H](C(=O)N2CCC[C@H]2C(=O)N[C@@H](CCSC)C(=O)NCC(N)=O)NC(=O)[C@H](CC(N)=O)NC(=O)[C@H](CCC(N)=O)NC1=O (H-CYIQNCPMG-NH2; disulfide 1-6),Activity,Gallus gallus,193 U/mg
same,Activity,Rattus norvegicus [1],0.4 U/mg
same,Activity,[2],200 U/mg
same,Activity,Rattus norvegicus [3],27 U/mg
